Values after ≈ are worked out from the molar mass of the structure shown.
Columns and labels:
Pseudomonas aeruginosa = assay: Gradient Plate MIC vs gram-negative microorganisms
Shigella sp. = assay: Gradient Plate MIC vs gram-negative microorganisms
[1] = test system: Penicillin Resistant Staphylococcus aureus X1.1; assay: Gradient Plate MIC vs penicillin resistant Staphylococcus aureus, isolate X1.1
[2] = test system: Penicillin Resistant Staphylococcus aureus V32; assay: Gradient Plate MIC vs penicillin resistant Staphylococcus aureus, isolate V32
Aerobacter aerogenes = assay: Gradient Plate MIC vs gram-negative microorganisms; details: Klebsiella aerogenes
Serratia marcescens [3] = assay: Gradient Plate MIC vs gram-negative microorganisms
Salmonella heidelberg = assay: Gradient Plate MIC vs gram-negative microorganisms; details: Salmonella enterica
[4] = test system: Penicillin Resistant Staphylococcus aureus V84; assay: Gradient Plate MIC vs penicillin resistant Staphylococcus aureus, isolate V84
[5] = test system: Penicillin Resistant Staphylococcus aureus X400; assay: Gradient Plate MIC vs penicillin resistant Staphylococcus aureus, isolate X400
Escherichia coli [6] = assay: Gradient Plate MIC vs gram-negative microorganisms
[7] = test system: Penicillin Resistant Staphylococcus aureus V41; assay: Gradient Plate MIC vs penicillin resistant Staphylococcus aureus, isolate V41
Klebsiella pneumoniae [8] = assay: Gradient Plate MIC vs gram-negative microorganisms
Staphylococcus aureus = assay: In vitro antibiotic spectrum, disc-plate method; type: cell-based; details: read-out: Diameter of Zone of Inhibition; for zone of inhibition at 500 µg/mL: concentration 0.5 mg/ml
Bacillus subtilis = assay: In vitro antibiotic spectrum, disc-plate method; type: cell-based; details: read-out: Diameter of Zone of Inhibition; for zone of inhibition at 500 µg/mL: concentration 0.5 mg/ml (ditto)
Pseudomonas solanacearum = assay: microbe, parasite or virus in culture; type: cell-based; details: Ralstonia solanacearum, read-out: Diameter of Zone of Inhibition
Mycobacterium avium = assay: In vitro antibiotic spectrum, disc-plate method; type: cell-based; details: read-out: Diameter of Zone of Inhibition
Escherichia coli [9] = assay: In vitro antibiotic spectrum, disc-plate method; type: cell-based; details: read-out: Diameter of Zone of Inhibition; for zone of inhibition at 500 µg/mL: concentration 0.5 mg/ml (ditto)
Klebsiella pneumoniae [10] = assay: In vitro antibiotic spectrum, disc-plate method; type: cell-based; details: read-out: Diameter of Zone of Inhibition; for zone of inhibition at 500 µg/mL: concentration 0.5 mg/ml (ditto)
Serratia marcescens [11] = assay: In vitro antibiotic spectrum, disc-plate method; type: cell-based; details: read-out: Diameter of Zone of Inhibition; for zone of inhibition at 500 µg/mL: concentration 0.5 mg/ml (ditto)
Proteus vulgaris = assay: In vitro antibiotic spectrum, disc-plate method; type: cell-based; details: read-out: Diameter of Zone of Inhibition; for zone of inhibition at 500 µg/mL: concentration 0.5 mg/ml
Sarcina lutea = assay: In vitro antibiotic spectrum, disc-plate method; type: cell-based; details: Micrococcus luteus, read-out: Diameter of Zone of Inhibition; for zone of inhibition at 500 µg/mL: concentration 0.5 mg/ml (ditto)
Salmonella gallinarum = assay: In vitro antibiotic spectrum, disc-plate method; type: cell-based; details: Salmonella enterica, read-out: Diameter of Zone of Inhibition; for zone of inhibition at 500 µg/mL: concentration 0.5 mg/ml (ditto)
Description: In the following Table III the antibiotic activity of the compounds of the invention is further illustrated by the activity shown for representative compounds as determined by the standard disc-plate method.

[12] = concentration 0.1 mg/ml (ditto)

Compound | MIC (Pseudomonas aeruginosa) | MIC (Shigella sp.) | MIC ([1]; NS = absence of serum) | MIC ([1]; S = presence of serum) | MIC ([2]; NS = absence of serum) | MIC ([2]; S = presence of serum) | MIC (Aerobacter aerogenes) | MIC (Serratia marcescens [3]) | MIC (Salmonella heidelberg) | MIC ([4]; NS = absence of serum) | MIC ([4]; S = presence of serum) | MIC ([5]; NS = absence of serum) | MIC ([5]; S = presence of serum) | MIC (Escherichia coli [6]) | MIC ([7]; NS = absence of serum) | MIC ([7]; S = presence of serum) | MIC (Klebsiella pneumoniae [8]) | zone of inhibition at 500 µg/mL (Staphylococcus aureus) | zone of inhibition at 500 µg/mL (Bacillus subtilis) | zone of inhibition at 500 µg/mL (Pseudomonas solanacearum) | other results
COC1(NC(=O)Cc2cccs2)C(=O)N2C(C(=O)O)=C(CSc3nnnn3C)CS[C@@H]21 (stereo partly shown) [B, 7-methoxy-7-[2-(2-thienyl)acetamido]-3-(1-methyl-1H-tetrazol-5-ylthiomethyl)-3-cephem-4-carboxylic acid] | > 200 µg/mL | 6.6 µg/mL (≈ 13.7 µM) | 0.4 µg/mL (≈ 0.829 µM) | 0.5 µg/mL | 1.8 µg/mL (≈ 3.73 µM) | 2 µg/mL | 3.5 µg/mL (≈ 7.25 µM) | 5.4 µg/mL (≈ 11.2 µM) | 0.9 µg/mL (≈ 1.87 µM) | 0.6 µg/mL (≈ 1.24 µM) | 1 µg/mL | 10 µg/mL (≈ 20.7 µM) | 9.5 µg/mL | 7.9 µg/mL (≈ 16.4 µM) | 1.5 µg/mL (≈ 3.11 µM) | 1.1 µg/mL | 0.5 µg/mL (≈ 1.04 µM) | – | – | – | –
COC1(NC(=O)C(O)c2ccccc2)C(=O)N2C(C(=O)O)=C(CSc3nnnn3C)CS[C@@H]21 (stereo partly shown) [A, 7-methoxy-7-mandelamido-3-(1-methyl-1H-tetrazole-5-ylthiomethyl)-3-cephem-4-carboxylic acid] | > 200 µg/mL | 2 µg/mL (≈ 4.06 µM) | 0.5 µg/mL (≈ 1.02 µM) | < 0.1 µg/mL | 4.5 µg/mL (≈ 9.14 µM) | 7.6 µg/mL | 0.7 µg/mL (≈ 1.42 µM) | 3.4 µg/mL (≈ 6.9 µM) | 0.6 µg/mL (≈ 1.22 µM) | 3.1 µg/mL (≈ 6.29 µM) | 2 µg/mL | 16.6 µg/mL (≈ 33.7 µM) | 15.4 µg/mL | 2.5 µg/mL (≈ 5.08 µM) | 4.2 µg/mL (≈ 8.53 µM) | 6.7 µg/mL | 0.6 µg/mL (≈ 1.22 µM) | – | – | – | –
COC1(NC(=O)C(O)c2ccccc2)C(=O)N2C(C(=O)O)=C(CSc3nnc(C)s3)CS[C@@H]21 (stereo partly shown) [E, 7-methoxy-7-mandelamido-3-(5-methyl-1,3,4-thiadiazol-2-ylthiomethyl)-3-cephem-4-carboxylic acid] | – | – | – | – | – | – | – | – | – | – | – | – | – | – | – | – | – | – | – | – | zone of inhibition at 100 µg/mL (Staphylococcus aureus; concentration 0.1 mg/ml): 25 mm; zone of inhibition at 100 µg/mL (Bacillus subtilis; [12]): 22 mm; zone of inhibition at 1000 µg/mL (Pseudomonas solanacearum): 16 mm; zone of inhibition at 1000 µg/mL (Mycobacterium avium; concentration 1.0 mg/ml): 15 mm; zone of inhibition at 100 µg/mL (Escherichia coli [9]; concentration 0.1 mg/ml): 22 mm; zone of inhibition at 100 µg/mL (Klebsiella pneumoniae [10]; [12]): 16 mm; zone of inhibition at 1000 µg/mL (Serratia marcescens [11]; concentration 1.0 mg/ml): 18 mm; zone of inhibition at 100 µg/mL (Proteus vulgaris; concentration 0.1 mg/ml): 18 mm; zone of inhibition at 100 µg/mL (Sarcina lutea; [12]): 24 mm; zone of inhibition at 1000 µg/mL (Salmonella gallinarum; concentration 1.0 mg/ml): 20 mm
COC1(NC(=O)Cn2cnnn2)C(=O)N2C(C(=O)O)=C(CSc3nnc(C)s3)CS[C@@H]21 (stereo partly shown) [C, 7-[2-(1-tetrazolyl)acetamido]-7-methoxy-3-(5-methyl-1,3,4-thiadiazol-2-ylthiomethyl)-3-cephem-4-carboxylic acid] | – | – | – | – | – | – | – | – | – | – | – | – | – | – | – | – | – | 24 mm | 25 mm | 16 mm | zone of inhibition at 500 µg/mL (Mycobacterium avium; concentration 0.5 mg/ml (ditto)): 10 mm; zone of inhibition at 500 µg/mL (Escherichia coli [9]): 23 mm; zone of inhibition at 500 µg/mL (Klebsiella pneumoniae [10]): 19 mm; zone of inhibition at 500 µg/mL (Serratia marcescens [11]): 19 mm; zone of inhibition at 500 µg/mL (Proteus vulgaris): 21 mm; zone of inhibition at 500 µg/mL (Sarcina lutea): 23 mm; zone of inhibition at 500 µg/mL (Salmonella gallinarum): 26 mm
COC1(NC(=O)Cn2cnnn2)C(=O)N2C(C(=O)O)=C(COC(C)=O)CSC21 (stereo not shown) [D, 7-[2-(1-Tetrazolyl)acetamido]:7:methoxy-3-acetoxymethyl-3-cephem-4-carboxylic acid] | – | – | – | – | – | – | – | – | – | – | – | – | – | – | – | – | – | 24 mm | 24 mm | 23 mm | zone of inhibition at 5000 µg/mL (Mycobacterium avium; concentration 5.0 mg/ml): 20 mm; zone of inhibition at 500 µg/mL (Escherichia coli [9]): 20 mm; zone of inhibition at 500 µg/mL (Klebsiella pneumoniae [10]): 17 mm; zone of inhibition at 500 µg/mL (Serratia marcescens [11]): 17 mm; zone of inhibition at 500 µg/mL (Proteus vulgaris): 18 mm; zone of inhibition at 500 µg/mL (Sarcina lutea): 23 mm; zone of inhibition at 500 µg/mL (Salmonella gallinarum): 25 mm
